Reference: patent publication US5059627A, “Nerve growth factor secretion inducing composition” (Takeda Chemical Industries, Ltd., priority 1989, dated 1991)

Experiments:
in vivo = settings: mouse, po
mice = settings: po, groups of 10

Compound: Cc1cc(O)c(C)c(C)c1O [2,3,5-Trimethyl-1,4-hydroquinone, 2,3,5-trimethyl-1,4-hydroquinone]
- LD50 (in vivo): > 500 mg/kg

Compound: COc1c(O)c(C)c(CCCCCCCCCCO)c(O)c1OC [6-(10-hydroxydecyl)-2,3-dimethoxy-5-methyl-1,4-hydroquinone]
- LD50 (in vivo): > 1000 mg/kg

Compound: COC1=C(OC)C(=O)C(C/C=C(\C)CCC=C(C)C)=C(C)C1=O [Ubiquinone-2, ubiquinone-2]
- LD50 (in vivo): > 500 mg/kg

Compound: CC1=CC(=O)c2ccccc2C1=O [Vitamin K0, vitamin K0]
- LD50 (mice): 500 mg/kg
